Assay results published in patent US10611760B2, “Therapeutic compounds as inhibitors of the orexin-1 receptor” (C4X Discovery Limited, priority 2014, dated 2020).

Biological target: T1, hOX1R (Homo sapiens, UniProt O43613)
T1 sequence (O43613 1-425): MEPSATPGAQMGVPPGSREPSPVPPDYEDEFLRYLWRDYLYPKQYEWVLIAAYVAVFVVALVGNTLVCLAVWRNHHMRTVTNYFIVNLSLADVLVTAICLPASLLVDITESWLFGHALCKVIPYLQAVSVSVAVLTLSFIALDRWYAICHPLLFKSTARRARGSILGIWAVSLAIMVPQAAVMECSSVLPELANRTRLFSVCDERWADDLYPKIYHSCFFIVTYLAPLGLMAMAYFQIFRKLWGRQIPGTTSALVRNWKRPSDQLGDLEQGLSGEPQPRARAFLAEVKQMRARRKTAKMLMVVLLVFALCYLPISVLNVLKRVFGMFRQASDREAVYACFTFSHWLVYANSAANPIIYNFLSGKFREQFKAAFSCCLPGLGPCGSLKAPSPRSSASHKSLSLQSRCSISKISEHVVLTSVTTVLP
Test: Intracellular calcium measurements using division-arrested cells, OX1
Assay type: cell-based
Details: agonist orexin A at 2×EC50, * = single experiment, otherwise average of at least two, read-out: pIC50 OX1 (converted)
Method: Intracellular Calcium Measurements Using Division-arrested Cells (Table 1):
Test compounds are prepared as 10 mM stock solutions in DMSO, then serially diluted in half log concentrations with DMSO followed by dilution with assay buffer (HBSS (Sigma-Aldrich, H8264) containing 20 mM HEPES (Sigma-Aldrich, H4034), 0.1% (w/v) bovine serum albumin and adjusted to pH 7.4) to a top final assay concentration of 10 μM.
Human OX1 (CT-A474) and human OX2 (CT-A475) receptor-expressing division-arrested cells are plated into 384 well black, clear bottom, cell-bind plates at a seeding density of 10,000 cells/50 μL growth media. The seeded plates are incubated at 37° C. in air supplemented with 5% CO2 for 16 hrs.
The media is removed and replaced with 30 μL/well of cell loading buffer (a vial of Calcium 5 is solubilized in 22 mL of assay buffer to which a freshly prepared 250 mM solution of probenecid in 1:1 1M NaOH to assay buffer (200 μL) is added) and the cells incubated for 1 hr at 37° C. The serially diluted test compounds (10 μL/well) are added to the plate, which is then incubated for 10 mins and placed in a FlexStation III reader.

First: CC[C@@H](CNc1ccc(Cl)cn1)N(C)C(=O)c1cc(C(F)(F)F)ccc1-n1nccn1 [Example 17, (S)—N-(1-((5-chloropyridin-2-yl)amino)butan-2-yl)-N-methyl-2-(2H-1,2,3-triazol-2-yl)-5-(trifluoromethyl)benzamide]
Second: CC[C@@H](CNc1ccc(Cl)cn1)N(C)C(=O)c1nc(C)ccc1-n1nccn1 [Example 21, (S)—N-(1-((5-chloropyridin-2-yl)amino)butan-2-yl)-N,6-dimethyl-3-(2H-1,2,3-triazol-2-yl)picolinamide]
The IC50 of the first is 25-fold higher: 200 nM for the first, 7.94 nM for the second.

`CC(C)[C@@H](COc1nccc(-c2ccccc2)n1)N(C)C(=O)c1ccccc1-c1ccccc1` [Example 32, (S)—N-methyl-N-(3-methyl-1-((4-phenylpyrimidin-2-yl)oxy)butan-2-yl)-[1,1′-biphenyl]-2-carboxamide] and `CC(C)[C@@H](COc1ncc2ccccc2n1)N(C)C(=O)c1ccccc1-c1ccccc1` [Example 31, (S)—N-methyl-N-(3-methyl-1-(quinazolin-2-yloxy)butan-2-yl)-[1,1′-biphenyl]-2-carboxamide] are the same in IC50: 200 nM for the first, 200 nM for the second.

`Cc1cc(C)nc(NC[C@H](C(C)C)N(C)C(=O)c2ccccc2-c2ccccc2)n1` [Example 37, (S)—N-(1-((4,6-dimethylpyrimidin-2-yl)amino)-3-methylbutan-2-yl)-N-methyl-[1,1′-biphenyl]-2-carboxamide] and `CC(C)[C@@H](CNc1ncc2ccccc2n1)N(C)C(=O)c1ccccc1-c1ccccc1` [Example 36, (S)—N-methyl-N-(3-methyl-1-(quinazolin-2-ylamino)butan-2-yl)-[1,1′-biphenyl]-2-carboxamide] are within 1.5-fold of each other in IC50: 79.4 nM for the first, 63.1 nM for the second.

Going from `CC[C@@H](CNc1cccc(C)n1)N(C)C(=O)c1cc(Cl)ccc1-n1nccn1` [Example 53, (S)-5-chloro-N-methyl-N-(1-((6-methylpyridin-2-yl)amino)butan-2-yl)-2-(2H-1,2,3-triazol-2-yl)benzamide] to `CC[C@@H](CNc1ccc(C(F)(F)F)nc1)N(C)C(=O)c1nc(C)ccc1-n1nccn1` [Example 55, (S)—N,6-dimethyl-3-(2H-1,2,3-triazol-2-yl)-N-(1-((6-(trifluoromethyl)pyridin-3-yl)amino)butan-2-yl)picolinamide], the IC50 falls from 251 nM to 79.4 nM (3.2-fold).

Going from `CC(C)[C@@H](CNc1ccc(Cl)cn1)N(C)C(=O)c1cn(C)c2ccccc12` [Example 50, (S)—N-(1-((5-chloropyridin-2-yl)amino)-3-methylbutan-2-yl)-N,1-dimethyl-1H-indole-3-carboxamide] to `Cc1nc(-c2ccccc2)c(C(=O)N[C@H](CNc2ccc(Cl)cn2)CC(C)C)s1` [Example 7, (S)—N-(1-((5-chloropyridin-2-yl)amino)-4-methylpentan-2-yl)-2-methyl-4-phenylthiazole-5-carboxamide], the IC50 rises from 631 nM to 1580 nM (2.5-fold).

Going from `CC(C)[C@@H](COCc1ccc(F)cc1)N(C)C(=O)c1ccccc1-c1ccccc1` [Example 29, (S)—N-(1-((4-fluorobenzyl)oxy)-3-methylbutan-2-yl)-N-methyl-[1,1′-biphenyl]-2-carboxamide] to `CC(C)[C@@H](COc1nc2ccccc2n1C)N(C)C(=O)c1ccccc1-c1ccccc1` [Example 33, (S)—N-methyl-N-(3-methyl-1-((1-methyl-1H-benzo[d]imidazol-2-yl)oxy)butan-2-yl)-[1,1′-biphenyl]-2-carboxamide], the IC50 falls from 1580 nM to 100 nM (16-fold).
